Measurements as given in patent US8431580B2, “4-aminopyrimidine derivatives as histamine H4 receptor antagonists” (Palau Pharma, S.A., priority 2007, dated 2013).

Assays:
human eosinophils = assay: Histamine-induced shape change assay (Gated Autofluorescence Forward Scatter assay, GAFS) in human eosinophils; format: cell-based; settings: Eosinophil, stimulated with 300 nM histamine
Protocol: Histamine-induced Shape Change Assay (Gated Autofluorescence Forward Scatter Assay, GAFS) in Human Eosinophils
In this assay the shape change induced by histamine in human eosinophils is determined by flow cytometry, detected as an increase in the size of the cells (forward scatter, FSC).
Polymorphonuclear leucocytes (PMNL, fraction containing neutrophils and eosinophils) were prepared from whole blood of human healthy volunteers. Briefly, erythrocytes were separated by sedimentation in 1.2% Dextran (SIGMA), and the leucocyte-rich fraction (PMNL) was isolated from the top layer by centrifugation at 450 g for 20 min in the presence of Ficoll-Paque® (Biochrom). PMNLs were resuspended in PBS buffer at a concentration of 1.1×10^6 cells/ml/tube and were pretreated with different concentrations of test compounds (dissolved in PBS) for 30 min at 37° C. and then stimulated with 300 nM histamine (Fluka) for 5 min. Finally, paraformaldehyde (1% final concentration in PBS) was added to terminate the reaction and maintain cell shape. Cell shape change was analyzed by flow cytometry (FACS Calibur, BD Biosystems). Eosinophils in PMNL were gated based on their higher autofluorescence relative to that of neutrophils (fluorescence channel FL2). Cell shape change was monitored in forward scatter signals (FSC). Results are expressed as percentage inhibition of shape change induced by histamine for each concentration of test compound.

[1] = target: T1, human histamine H4 receptor (Homo sapiens, UniProt Q9H3N8); assay: Competitive binding assay of [3H]-histamine to the human histamine H4 receptor; settings: 10 nM [3H]-histamine, CHO membrane extract; for inhibition at 1 µM: at a concentration of 1 μM
T1 construct: purchased Euroscreen/Perkin-Elmer
Protocol: Competitive Binding Assay of [^3H]-histamine to the Human Histamine H4 Receptor
To perform the binding assay, membrane extracts prepared from a stable CHO recombinant cell line expressing the human histamine H4 receptor (Euroscreen/Perkin-Elmer) were used.
The compounds to be tested were incubated at the desired concentration in duplicate with 10 nM [^3H]-histamine and 15 μg membrane extract in a total volume of 250 μL of 50 mM Tris-HCl, pH 7.4, 1.25 mM EDTA for 60 minutes at 25° C. Non-specific binding was defined in the presence of 100 μM of unlabelled histamine. The reaction was stopped by filtration using a vacuum collector (Multiscreen Millipore) in 96-well plates (MultiScreen HTS Millipore) that had been previously soaked in 0.5% polyethylenimine for 2 hours at 0° C. The plates were subsequently washed with 50 mM Tris (pH 7.4), 1.25 mM EDTA at 0° C., and the filters were dried for 1 hour at 50-60° C., before adding the scintillation liquid in order to determine bound radioactivity by means of a betaplate scintillation counter.

T1 sequence (Q9H3N8 whole entry): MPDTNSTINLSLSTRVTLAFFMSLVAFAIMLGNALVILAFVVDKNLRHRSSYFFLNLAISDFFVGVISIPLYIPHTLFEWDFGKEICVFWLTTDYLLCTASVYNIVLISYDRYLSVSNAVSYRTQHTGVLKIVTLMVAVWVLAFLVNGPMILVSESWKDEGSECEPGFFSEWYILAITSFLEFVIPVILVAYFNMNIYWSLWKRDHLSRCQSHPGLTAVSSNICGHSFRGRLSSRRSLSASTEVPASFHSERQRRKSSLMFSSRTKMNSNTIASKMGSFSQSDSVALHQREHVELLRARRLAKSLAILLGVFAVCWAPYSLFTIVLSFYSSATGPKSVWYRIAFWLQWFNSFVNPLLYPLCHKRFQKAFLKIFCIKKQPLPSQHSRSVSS

CN[C@@H]1CCN(c2cc(N)nc(CC(C)C)n2)C1 [Example 1, 2-Isobutyl-6-((3R)-3-(methylamino)pyrrolidin-1-yl)pyrimidin-4-amine]
inhibition at 1 µM (human eosinophils): > 50%
inhibition at 10 µM [1]: > 50%

CN[C@@H]1CCN(c2cc(N)nc(CC3CCCCC3)n2)C1 [Example 2, 2-Cyclohexylmethyl-6-((3R)-3-(methylamino)pyrrolidin-1-yl)pyrimidin-4-amine]
inhibition at 1 µM (human eosinophils): > 50%
inhibition at 10 µM [1]: > 50%

CNC1CN(c2cc(N)nc(Cc3ccc(F)cc3)n2)C1 [Example 3, 2-(4-Fluorobenzyl)-6-(3-(methylamino)azetidin-1-yl)pyrimidin-4-amine]
inhibition at 1 µM (human eosinophils): > 50%
inhibition at 10 µM [1]: > 50%

CNC1CN(c2cc(N)nc(CC(C)C)n2)C1 [Example 4, 2-Isobutyl-6-(3-(methylamino)azetidin-1-yl)pyrimidin-4-amine]
inhibition at 1 µM (human eosinophils): > 50%
inhibition at 10 µM [1]: > 50%

CNC1CN(c2cc(N)nc(C3CC3)n2)C1 [Example 5, 2-Cyclopropyl-6-(3-(methylamino)azetidin-1-yl)pyrimidin-4-amine]
inhibition at 10 µM [1]: > 50%

CNC1CN(c2cc(N)nc(C(C)(C)C)n2)C1 [Example 6, 2-tert-Butyl-6-(3-(methylamino)azetidin-1-yl)pyrimidin-4-amine]
inhibition at 10 µM [1]: > 50%

CNC1CN(c2cc(N)nc(C(C)C)n2)C1 [Example 7, 2-Isopropyl-6-(3-(methylamino)azetidin-1-yl)pyrimidin-4-amine]
inhibition at 10 µM [1]: > 50%

CNC1CN(c2cc(N)nc(COc3ccccc3)n2)C1 [Example 9, 6-(3-(methylamino)azetidin-1-yl)-2-(phenoxymethyl)pyrimidin-4-amine]
inhibition at 10 µM [1]: > 50%

CN[C@@H]1CCN(c2cc(N)nc(C3CC3)n2)C1 [Example 10, 2-Cyclopropyl-6-((3R)-3-(methylamino)pyrrolidin-1-yl)pyrimidin-4-amine]
inhibition at 1 µM [1]: > 50%

CN[C@@H]1CCN(c2cc(N)nc(C(C)(C)C)n2)C1 [Example 11, 2-tert-Butyl-6-((3R)-3-(methylamino)pyrrolidin-1-yl)pyrimidin-4-amine]
inhibition at 1 µM (human eosinophils): > 50%
inhibition at 1 µM [1]: > 50%

CN[C@@H]1CCN(c2cc(N)nc(C(C)C)n2)C1 [Example 12, 2-Isopropyl-6-((3R)-3-(methylamino)pyrrolidin-1-yl)pyrimidin-4-amine]
inhibition at 1 µM (human eosinophils): > 50%
inhibition at 1 µM [1]: > 50%

CN[C@@H]1CCN(c2cc(N)nc(COc3ccccc3)n2)C1 [Example 13, 6-((3R)-3-(methylamino)pyrrolidin-1-yl)-2-(phenoxymethyl)pyrimidin-4-amine]
inhibition at 10 µM [1]: > 50%

CC(C)Cc1nc(N)cc(N2CC(N)C2)n1 [Example 14, 6-(3-Aminoazetidin-1-yl)-2-isobutylpyrimidin-4-amine]
inhibition at 10 µM [1]: > 50%

CNC1(C)CN(c2cc(N)nc(CC(C)C)n2)C1 [Example 15, 2-Isobutyl-6-(3-methyl-3-(methylamino)azetidin-1-yl)pyrimidin-4-amine]
inhibition at 1 µM (human eosinophils): > 50%
inhibition at 10 µM [1]: > 50%

CC(C)Cc1nc(N)cc(N2CC[C@@H](N)C2)n1 [Example 16, 6-((3R)-3-aminopyrrolidin-1-yl)-2-isobutylpyrimidin-4-amine]
inhibition at 10 µM [1]: > 50%

CNC1CN(c2cc(N)nc(C3CCC3)n2)C1 [Example 17, 2-Cyclobutyl-6-(3-(methylamino)azetidin-1-yl)pyrimidin-4-amine]
inhibition at 1 µM (human eosinophils): > 50%
inhibition at 10 µM [1]: > 50%

CN[C@@H]1CCN(c2cc(N)nc(C3CCC3)n2)C1 [Example 18, 2-Cyclobutyl-6-((3R)-3-(methylamino)pyrrolidin-1-yl)pyrimidin-4-amine]
inhibition at 1 µM (human eosinophils): > 50%
inhibition at 10 µM [1]: > 50%

CNC1CN(c2cc(N)nc(C3CCCC3)n2)C1 [Example 19, 2-Cyclopentyl-6-(3-(methylamino)azetidin-1-yl)pyrimidin-4-amine]
inhibition at 1 µM (human eosinophils): > 50%
inhibition at 10 µM [1]: > 50%

CN[C@@H]1CCN(c2cc(N)nc(C3CCCC3)n2)C1 [Example 20, 2-Cyclopentyl-6-((3R)-3-(methylamino)pyrrolidin-1-yl)pyrimidin-4-amine]
inhibition at 1 µM (human eosinophils): > 50%
inhibition at 10 µM [1]: > 50%

CNC1CN(c2cc(N)nc(CC(C)(C)C)n2)C1 [Example 21, 2-(2,2-Dimethylpropyl)-6-(3-(methylamino)azetidin-1-yl)pyrimidin-4-amine]
inhibition at 1 µM (human eosinophils): > 50%
inhibition at 10 µM [1]: > 50%

CN[C@@H]1CCN(c2cc(N)nc(CC(C)(C)C)n2)C1 [Example 22, 2-(2,2-Dimethylpropyl)-6-((3R)-3-(methylamino)pyrrolidin-1-yl)pyrimidin-4-amine]
inhibition at 1 µM (human eosinophils): > 50%
inhibition at 10 µM [1]: > 50%

CN[C@@H]1CCN(c2cc(N)nc(CCC3CCCC3)n2)C1 [Example 23, 2-(2-Cyclopentylethyl)-6-((3R)-3-(methylamino)pyrrolidin-1-yl)pyrimidin-4-amine]
inhibition at 10 µM [1]: > 50%
